# Results from patent publication US10266548B2, “Substituted benzylindazoles for use as Bub1 kinase inhibitors in the treatment of hyperproliferative diseases” (Bayer Intellectual Property GmbH, priority 2011, dated 2019).
# Structures can show the parent of a compound that is named as a salt. Where two headings read alike, the source gives them in different places.
# Assays:
# [1] = target: catalytic domain of human Bub1 (amino acids 704-1085) (Homo sapiens (Human), UniProt O43683); assay: Bub1 kinase assay (TR-FRET); type: biochemical; settings: 10 μM ATP, 1 μM peptide substrate; read-out: Biological Assay 1: Bub1 kinase assay median IC50
# Method in brief: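 Phosphoserine product detected by TR-FRET (Eu-labeled anti-mouse IgG/anti-phosphoserine antibody to streptavidin-XL665) after 1 h at 22 °C. IC50 from 4-parameter logistic fit.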
# HeLa cells = assay: Proliferation assay (HeLa cell line); type: cell-based; settings: read-out: Biological Assay 2: Proliferation assay (HeLa cell line) median IC50
# [2] = Homo sapiens, 96 h, 4 days, crystal violet
# catalytic domain of human Bub1 (amino acids 704-1085), sequence (O43683 704-1085): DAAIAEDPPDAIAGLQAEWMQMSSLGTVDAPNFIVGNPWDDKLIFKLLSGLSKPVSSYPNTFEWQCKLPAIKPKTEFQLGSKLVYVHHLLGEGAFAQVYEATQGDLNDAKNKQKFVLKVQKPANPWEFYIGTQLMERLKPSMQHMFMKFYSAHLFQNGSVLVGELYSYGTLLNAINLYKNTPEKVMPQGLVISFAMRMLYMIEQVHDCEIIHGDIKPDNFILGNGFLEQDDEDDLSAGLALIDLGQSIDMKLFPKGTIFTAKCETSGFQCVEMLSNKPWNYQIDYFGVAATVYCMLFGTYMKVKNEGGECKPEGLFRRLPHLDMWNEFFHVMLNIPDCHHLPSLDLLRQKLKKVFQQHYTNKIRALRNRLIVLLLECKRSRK
SMILES,IC50 [1] [nM],IC50 (HeLa cells; [2]) [nM],"IC50 (HeLa cells; 4 days, crystal violet) [nM]","IC50 (HeLa cells; Homo sapiens, 96 h) [nM]"
"Fc1ccccc1Cn1nc(-c2nccc(Nc3ccncc3)n2)c2ccccc21 [Example 5-3, 2-[1-(2-fluorobenzyl)-1H-indazol-3-yl]-N-(pyridin-4-yl)pyrimidin-4-amine]",28,–,–,7400
"COc1cnc(-c2nn(Cc3c(F)cc(C4CC4)cc3F)c3ccccc23)nc1Nc1ccncc1 [Example 6-1, 2-[1-(4-cyclopropyl-2,6-difluorobenzyl)-1H-indazol-3-yl]-5-methoxy-N-(pyridin-4-yl)pyrimidin-4-amine]",3.9,3100,–,–
"COc1cnc(-c2nn(Cc3c(F)cc(C(C)=O)cc3F)c3ccccc23)nc1Nc1ccncc1 [Example 7-1, 1-[3,5-difluoro-4-({3-[5-methoxy-4-(pyridin-4-ylamino)pyrimidin-2-yl]-1H-indazol-1-yl}methyl)phenyl]ethanone]",3,–,–,4400
"COc1cnc(-c2nn(Cc3c(Cl)ccc(CO)c3Cl)c3ccccc23)nc1Nc1ccncc1 [Example 8-1, [2,4-dichloro-3-({3-[5-methoxy-4-(pyridin-4-ylamino)pyrimidin-2-yl]-1H-indazol-1-yl}methyl)phenyl]methanol]",7.4,–,3200,–
"COc1cnc(-c2nn(Cc3cccc(CCO)c3)c3ccccc23)nc1Nc1ccncc1 [Example 8-2, 2-[3-({3-[5-methoxy-4-(pyridin-4-ylamino)pyrimidin-2-yl]-1H-indazol-1-yl}methyl)phenyl] ethanol]",21,5500,–,–
"COc1cnc(-c2nn(Cc3cccc(C(C)(C)CO)c3)c3ccccc23)nc1Nc1ccncc1 [Example 8-3, 2-[3-({3-[5-methoxy-4-(pyridin-4-ylamino)pyrimidin-2-yl]-1H-indazol-1-yl}methyl)phenyl]-2-methylpropan-1-ol]",240,≥ 10000,–,–
"CCOc1cc(F)c(Cn2nc(-c3ncc(OC)c(Nc4ccncc4CO)n3)c3ccccc32)c(F)c1 [Example 8-4, [4-({2-[1-(4-ethoxy-2,6-difluorobenzyl)-1H-indazol-3-yl]-5-methoxypyrimidin-4-yl}amino)pyrimidin-3-yl]methanol]",13,–,5000,–
"COc1cnc(-c2nn(Cc3cccc(CC(C)(C)O)c3)c3ccccc23)nc1Nc1ccncc1 [Example 9-2, 1-[3-({3-[5-methoxy-4-(pyridin-4-ylamino)pyrimidin-2-yl]-1H-indazol-1-yl}methyl)phenyl]-2-methylpropan-2-ol]",21,≥ 10000,–,–
"COc1cnc(-c2nn(Cc3c(Cl)ccc(C(C)(C)O)c3Cl)c3ccccc23)nc1Nc1ccncc1 [Example 9-3, 2-[2,4-dichloro-3-({3-[5-methoxy-4-(pyridin-4-ylamino)pyrimidin-2-yl]-1H-indazol-1-yl}methyl)phenyl] propan-2-ol]",23,–,–,7000
"CCOc1cc(F)c(Cn2nc(-c3ncc(OC(F)F)c(Nc4ccncc4)n3)c3ccccc32)c(F)c1 [Example 10-1, 5-(difluoromethoxy)-2-[1-(4-ethoxy-2,6-difluorobenzyl)-1H-indazol-3-yl]-N-(pyridin-4 yl)pyrimidin-4-amine]",12,2000,–,–
"CCOc1cc(F)c(Cn2nc(-c3ncc(O)c(N(c4ccncc4)C(F)F)n3)c3ccccc32)c(F)c1 [Example 10-3, 4-[(difluoromethyl) (pyridin-4-yl)amino]-2-[1-(4-ethoxy-2,6-difluorobenzyl)-1H-indazol-3-yl]pyrimidin-5-ol]",360,9600,–,–
"COc1ccc(Cn2nc(-c3ncc(OCC(F)(F)F)c(Nc4ccncc4)n3)c3ccccc32)cc1 [Example 11-1, 2-[1-(4-methoxybenzyl)-1H-indazol-3-yl]-N-(pyridin-4-yl)-5-(2,2,2-trifluoroethoxy)pyrimidin-4-amine]",18,–,–,8100
"CCOc1cc(F)c(Cn2nc(-c3ncc(OCC(F)(F)F)c(Nc4ccncc4)n3)c3ccccc32)c(F)c1 [Example 11-2, 2-[1-(4-ethoxy-2,6-difluorobenzyl)-1H-indazol-3-yl]-N-(pyridin-4-yl)-5-(2,2,2-trifluoroethoxy) pyrimidin-4-amine]",10,≥ 10000,–,–
"OC[C@@H](O)COc1cnc(-c2nn(Cc3ccccc3F)c3ccccc23)nc1Nc1ccncc1 [Example 12-2, (2R)-3-({2-[1-(2-fluorobenzyl)-1H-indazol-3-yl]-4-(pyridin-4-ylamino)pyrimidin-5-yl}oxy)propane-1,2-diol]",4.6,–,–,≥ 10000
OC[C@H](O)COc1cnc(-c2nn(Cc3ccccc3F)c3ccccc23)nc1Nc1ccncc1 [Example 12-3],4.8,–,≥ 10000,–
"OCCOc1cnc(-c2nn(Cc3ccccc3F)c3ccccc23)nc1Nc1ccncc1 [Example 13-2, 2-({2-[1-(2-fluorobenzyl)-1H-indazol-3-yl]-4-(pyridin-4-ylamino)pyrimidin-5-yl}oxy)ethanol]",7.2,–,–,9600
"CCOC(=O)c1cnccc1Nc1nc(-c2nn(Cc3ccccc3F)c3ccccc23)ncc1OCCO [Example 13-3, ethyl 4-({2-[1-(2-fluorobenzyl)-1H-indazol-3-yl]-5-(2-hydroxyethoxy)pyrimidin-4-yl}amino)pyridine-3-carboxylate]",17,–,–,≥ 10000
"CNC(=O)c1cnccc1Nc1nc(-c2nn(Cc3ccccc3F)c3ccccc23)ncc1OCCO [Example 13-4, 4-({2-[1-(2-fluorobenzyl)-1H-indazol-3-yl]-5-(2-hydroxyethoxy)-pyrimidin-4-yl}amino)-N-methylpyridine-3-carboxamide]",4.7,8000,–,–
"NC(=O)c1cnccc1Nc1nc(-c2nn(Cc3ccccc3F)c3ccccc23)ncc1OCCO [Example 13-5, 4-({2-[1-(2-fluorobenzyl)-1H-indazol-3-yl]-5-(2-hydroxyethoxy)pyrimidin-4-yl}amino)pyridine-3-carboxamide]",6.5,≥ 10000,–,–
"O=C(OCCO)c1cnccc1Nc1nc(-c2nn(Cc3ccccc3F)c3ccccc23)ncc1OCCO [Example 13-6, 2-hydroxyethyl 4-({2-[1-(2-fluorobenzyl)-1H-indazol-3-yl]-5-(2-hydroxyethoxy)pyrimidin-4-yl}amino)pyridine-3-carboxylate]",8.6,≥ 10000,–,–
"COc1ccc(Cn2nc(-c3ncc(OC4CC4)c(Nc4ccncc4)n3)c3ccccc32)cc1 [Example 14-1, 5-(cyclopropyloxy)-2-[1-(4-methoxybenzyl)-1H-indazol-3-yl]-N-(pyridin-4-yl)pyrimidin-4-amine]",3300,–,–,≥ 10000
"OC[C@H](O)COc1cnc(-c2nn(Cc3ccccc3F)c3ccccc23)nc1Nc1ccncc1 [Example 15-2, (2S)-3-({2-[1-(2-fluorobenzyl)-1H-indazol-3-yl]-4-(pyridin-4-ylamino)pyrimidin-5-yl}oxy)propane-1,2-diol hydrochloride (1:1)]",5.5,–,–,≥ 10000
"COc1cnc(-c2nn(Cc3c(Cl)cccc3Cl)c3ccccc23)nc1Nc1ccncc1 [Example 15-4, 2-[1-(2,6-dichlorobenzyl)-1H-indazol-3-yl]-5-methoxy-N-(pyridin-4-yl)pyrimidin-4-amine hydrochloride (1:1)]",7.3,–,–,≥ 10000
"CCOc1cc(F)c(Cn2nc(-c3nccc(N(C(=O)C4CCOCC4)c4ccncc4)n3)c3ccccc32)c(F)c1 [Example 16-3, N-{2-[1-(4-ethoxy-2,6-difluorobenzyl)-1H-indazol-3-yl]pyrimidin-4-yl}-N-(pyridin-4-yl)tetrahydro-2H-pyran-4-carboxamide]",210,–,–,4100

# Further lines, with some results ahead:
IC50 [1] [nM],IC50 (HeLa cells; [2]) [nM],"IC50 (HeLa cells; 4 days, crystal violet) [nM]",SMILES,"IC50 (HeLa cells; Homo sapiens, 96 h) [nM]"
5.7,–,1700,"CCOc1cc(F)c(Cn2nc(-c3ncc(OCCO)c(Nc4ccncc4)n3)c3ccccc32)c(F)c1 [Example 15-3, 2-({2-[1-(4-ethoxy-2,6-difluorobenzyl)-1H-indazol-3-yl]-4-(pyridin-4-ylamino)pyrimidin-5-yl}oxy)ethanol hydrochloride (1:1)]",–
12,–,9900,"COc1cnc(-c2nn(Cc3c(Cl)ccc(CO)c3Cl)c3ccccc23)nc1Nc1ccncc1 [Example 15-5, [2,4-dichloro-3-({3-[5-methoxy-4-(pyridin-4-ylamino)pyrimidin-2-yl]-1H-indazol-1-yl}methyl)phenyl] methanol hydrochloride (1:1)]",–
170,2800,–,"CCOc1cc(F)c(Cn2nc(-c3nccc(N(C(C)=O)c4ccncc4)n3)c3ccccc32)c(F)c1 [Example 16-1, N-{2-[1-(4-ethoxy-2,6-difluorobenzyl)-1H-indazol-3-yl]pyrimidin-4-yl}-N-(pyridin-4-yl)acetamide]",–
23,3500,–,"CCOc1cc(F)c(Cn2nc(-c3nccc(N(C(=O)COC)c4ccncc4)n3)c3ccccc32)c(F)c1 [Example 16-2, N-{2-[1-(4-ethoxy-2,6-difluorobenzyl)-1H-indazol-3-yl]pyrimidin-4-yl}-2-methoxy-N-(pyridin-4-yl)acetamide]",–
20,2700,–,"CCOc1cc(F)c(Cn2nc(-c3nccc(N(C(=O)COCCOC)c4ccncc4)n3)c3ccccc32)c(F)c1 [Example 16-4, N-{2-[1-(4-ethoxy-2,6-difluorobenzyl)-1H-indazol-3-yl]pyrimidin-4-yl}-2-(2-methoxyethoxy) N-(pyridin-4-yl)acetamide]",–
170,≥ 10000,–,"CCOc1cc(F)c(Cn2nc(-c3nccc(N(CCO)c4ccncc4)n3)c3ccccc32)c(F)c1 [Example 17-1, 2-[{2-[1-(4-ethoxy-2,6-difluorobenzyl)-1H-indazol-3-yl]pyrimidin-4-yl}(pyridin-4-yl)amino]ethanol]",–
2400,–,≥ 10000,CCOc1cc(F)c(Cn2nc(-c3nccc(N(CC4(CO)COC4)c4ccncc4)n3)c3ccccc32)c(F)c1 [Example 17-2],–
